Molecular target: T1, hDGAT1 (Homo sapiens, UniProt O75907)
T1 construct: host or cells: Sf9 insect cells (baculovirus); microsomal preparation
T1 sequence (O75907 1-488): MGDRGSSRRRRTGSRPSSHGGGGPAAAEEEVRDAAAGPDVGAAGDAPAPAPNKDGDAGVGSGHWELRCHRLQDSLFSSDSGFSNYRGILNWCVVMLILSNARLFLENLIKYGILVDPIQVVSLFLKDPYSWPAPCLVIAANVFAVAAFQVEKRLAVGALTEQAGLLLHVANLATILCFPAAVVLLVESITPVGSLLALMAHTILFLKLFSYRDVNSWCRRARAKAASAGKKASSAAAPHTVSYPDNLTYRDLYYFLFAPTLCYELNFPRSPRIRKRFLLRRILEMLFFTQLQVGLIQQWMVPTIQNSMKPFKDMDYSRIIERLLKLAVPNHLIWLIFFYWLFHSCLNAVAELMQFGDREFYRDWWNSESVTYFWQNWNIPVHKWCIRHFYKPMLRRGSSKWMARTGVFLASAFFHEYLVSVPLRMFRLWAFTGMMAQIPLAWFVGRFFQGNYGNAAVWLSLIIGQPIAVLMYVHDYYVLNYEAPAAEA
Test: In-vitro DGAT1 assay (hDGAT1 microsomes from Sf9 cells, 14C oleoyl CoA, triglyceride formation)
Format: biochemical
Summary of the method: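 Compounds tested in duplicate at 10, 5 and 1 μM for 10 min at 37 °C. Reaction: Sf9-expressed hDGAT1 microsomes (2.5–10 μg), [14C]oleoyl-CoA plus 409.5–1638 μM dioleoylglycerol, pH 7.4 Tris-HCl with fatty-acid-free BSA. Radiolabelled triglyceride extracted into heptane and scintillation-counted.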

| inhibition at 1 µM [%] | inhibition at 5 µM (At 5 μM) [%] | Structure (SMILES) |
| --- | --- | --- |
| 75 to 100 |  | Cc1ccc(Cl)c(NC(=O)Nc2ccc(-c3cc(C(=O)N[C@H](C(=O)O)C(C)C)on3)cc2)c1 [Example 189, (S)-2-(3-(4-(3-(2-chloro-5-methylphenyl)ureido)phenyl)isoxazole-5-carboxamido)-3-methylbutanoic acid] |
| 75 to 100 |  | CSc1ccc(NC(=O)Nc2ccc(-c3cc(C(=O)N[C@H](C(=O)O)C(C)C)on3)cc2)cc1 [Example 197, (S)-3-methyl-2-(3-(4-(3-(4-(methylthio)phenyl)ureido)phenyl)isoxazole-5-carboxamido)butanoic acid] |
| 50 to 75 |  | Cc1cc(C)cc(NC(=O)Nc2ccc(-c3cc(C(=O)N[C@H](C(=O)O)C(C)C)on3)cc2)c1 [Example 205, (S)-2-(3-(4-(3-(3,5-dimethylphenyl)ureido)phenyl)isoxazole-5-carboxamido)-3-methylbutanoic acid] |
| 75 to 100 |  | CC(C)[C@H](NC(=O)c1cc(-c2ccc(NC(=O)Nc3cccc(Cl)c3)cc2)no1)C(=O)O [Example 209, (S)-2-(3-(4-(3-(3-chlorophenyl)ureido)phenyl)isoxazole-5-carboxamido)-3-methylbutanoic acid] |
| 0 to 50 |  | COC(=O)[C@H](NC(=O)c1cc(-c2ccc(NC(=O)Nc3ccccc3C#N)cc2)no1)C(C)C [Example 216, (R)-methyl 2-(3-(4-(3-(2-cyanophenyl)ureido)phenyl)isoxazole-5-carboxamido)-3-methylbutanoate] |
| 0 to 50 |  | COC(=O)[C@H](NC(=O)c1cc(-c2ccc(NC(=O)Nc3ccc(C#N)cc3)cc2)no1)C(C)C [Example 218, (R)-methyl 2-(3-(4-(3-(4-cyanophenyl)ureido)phenyl)isoxazole-5-carboxamido)-3-methylbutanoate] |
| 50 to 75 |  | CC(C)[C@@H](NC(=O)c1cc(-c2ccc(NC(=O)Nc3ccc(C#N)cc3)cc2)no1)C(=O)O [Example 219, (R)-2-(3-(4-(3-(4-Cyanophenyl)ureido)phenyl)isoxazole-5-carboxamido)-3-methylbutanoic acid] |
| 0 to 50 |  | COC(=O)[C@H](NC(=O)c1cc(-c2ccc(NC(=O)Nc3ccccc3Cl)cc2)no1)C(C)C [Example 220, (R)-Methyl 2-(3-(4-(3-(2-chlorophenyl)ureido)phenyl)isoxazole-5-carboxamido)-3-methylbutanoate] |
|  | 50 to 75 | COC(=O)[C@H](NC(=S)c1cc(-c2ccc(NC(=O)Nc3ccccc3F)cc2)no1)C(C)C [Example 222, (R)-Methyl 2-(3-(4-(3-(2-fluorophenyl)ureido)phenyl)isoxazole-5-carbothioamido)-3-methylbutanoate] |
| 0 to 50 |  | COC(=O)[C@H](NC(=S)c1cc(-c2ccc(NC(=O)Nc3ccc(C)cc3)cc2)no1)C(C)C [Example 223, (R)-Methyl 3-methyl-2-(3-(4-(3-p-tolylureido)phenyl)isoxazole-5-carbothioamido)butanoate] |
| 0 to 50 |  | CCS/C(=N\[C@@H](C(=O)OC)C(C)C)c1cc(-c2ccc(NC(=O)Nc3ccc(C)cc3)cc2)no1 [Example 225, (R,Z)-Methyl 2-(ethylthio(3-(4-(3-p-tolylureido)phenyl)isoxazol-5-yl)methyleneamino)-3-methylbutanoate] |

Continued, compound first:

| Structure (SMILES) | inhibition at 1 µM [%] | inhibition at 5 µM (At 5 μM) [%] |
| --- | --- | --- |
| CC(C)[C@H](NC(=O)c1cc(-c2ccc(NC(=O)Nc3ccc(F)c(F)c3F)cc2)no1)C(=O)O [Example 191, (S)-3-Methyl-2-(3-(4-(3-(2,3,4-trifluorophenyl)ureido)phenyl)isoxazole-5-carboxamido)butanoic acid] | 75 to 100 |  |
| CC(C)[C@H](NC(=O)c1cc(-c2ccc(NC(=O)Nc3ccc(Cl)cc3F)cc2)no1)C(=O)O [Example 193, (S)-2-(3-(4-(3-(4-chloro-2-fluorophenyl)ureido)phenyl)isoxazole-5-carboxamido)-3-methylbutanoic acid] | 75 to 100 |  |
| Cc1ccc(Cl)cc1NC(=O)Nc1ccc(-c2cc(C(=O)N[C@H](C(=O)O)C(C)C)on2)cc1 [Example 195, (S)-2-(3-(4-(3-(5-chloro-2-methylphenyl)ureido)phenyl)isoxazole-5-carboxamido)-3-methylbutanoic acid] | 75 to 100 |  |
| CC(C)[C@H](NC(=O)c1cc(-c2ccc(NC(=O)Nc3cc(F)ccc3F)cc2)no1)C(=O)O [Example 199, (S)-2-(3-(4-(3-(2,5-Difluorophenyl)ureido)phenyl)isoxazole-5-carboxamido)-3-methylbutanoic acid] | 75 to 100 |  |
| CC(C)[C@H](NC(=O)c1cc(-c2ccc(NC(=O)Nc3ccc(Cl)cc3Oc3ccccc3)cc2)no1)C(=O)O [Example 201, (S)-2-(3-(4-(3-(4-Chloro-2-phenoxyphenyl)ureido)phenyl)isoxazole-5-carboxamido)-3-methylbutanoic acid] | 75 to 100 |  |
| CC(C)[C@H](NC(=O)c1cc(-c2ccc(NC(=O)Nc3ccccc3OC(F)(F)F)cc2)no1)C(=O)O [Example 203, (S)-3-methyl-2-(3-(4-(3-(2-(trifluoromethoxy)phenyl)ureido)phenyl)isoxazole-5-carboxamido)butanoic acid] | 75 to 100 |  |
| CC(C)[C@H](NC(=O)c1cc(-c2ccc(NC(=O)Nc3ccc(Cl)nc3)cc2)no1)C(=O)O [Example 207, (S)-2-(3-(4-(3-(6-chloropyridin-3-yl)ureido)phenyl)isoxazole-5-carboxamido)-3-methylbutanoic acid] | 0 to 50 |  |
| CC(C)[C@H](NC(=O)c1cc(-c2ccc(NC(=O)Nc3cc(C(F)(F)F)ccc3Cl)cc2)no1)C(=O)O [Example 211, (S)-2-(3-(4-(3-(2-chloro-5-(trifluoromethyl)phenyl)ureido)phenyl)isoxazole-5-carboxamido)-3-methylbutanoic acid] | 75 to 100 |  |
| CC(C)[C@H](NC(=O)c1cc(-c2ccc(NC(=O)Nc3ccc(F)cc3C(F)(F)F)cc2)no1)C(=O)O [Example 213, (S)-2-(3-(4-(3-(4-fluoro-2-(trifluoromethyl)phenyl)ureido)phenyl)isoxazole-5-carboxamido)-3-methylbutanoic acid] | 50 to 75 |  |
| CC(C)[C@H](NC(=O)c1cc(-c2ccc(NC(=O)Nc3ccc(Cl)cc3C(F)(F)F)cc2)no1)C(=O)O [Example 215, (S)-2-(3-(4-(3-(4-chloro-2-(trifluoromethyl)phenyl)ureido)phenyl)isoxazole-5-carboxamido)-3-methylbutanoic acid] | 75 to 100 |  |
| CC(C)[C@@H](NC(=O)c1cc(-c2ccc(NC(=O)Nc3cccc(C#N)c3)cc2)no1)C(=O)O [Example 217, (R)-2-(3-(4-(3-(3-cyanophenyl)ureido)phenyl)isoxazole-5-carboxamido)-3-methylbutanoic acid] | 50 to 75 |  |
| CC(C)[C@@H](NC(=O)c1cc(-c2ccc(NC(=O)Nc3ccccc3Cl)cc2)no1)C(=O)O [Example 221, (R)-2-(3-(4-(3-(2-Chlorophenyl)ureido)phenyl)isoxazole-5-carboxamido)-3-methylbutanoic acid] | 75 to 100 |  |
| CCS/C(=N\[C@@H](C(=O)OC)C(C)C)c1cc(-c2ccc(NC(=O)Nc3ccccc3F)cc2)no1 [Example 224, (R,Z)-Methyl 2-(ethylthio(3-(4-(3-(2-fluorophenyl)ureido)phenyl)isoxazol-5-yl)methyleneamino)-3-methylbutanoate] | 0 to 50 |  |

Source: patent US8835428B2, “Diacylglycerol acyltransferase inhibitors” (Piramal Enterprises Limited, priority 2008, dated 2014)
